Source: patent US20040014030A1, “Enzymatic assay of HIV protease inhibitors” (priority 2002, published 2004)
Where a SMILES comes first, the peptide text is derived from it.

Molecular target: T1, HIV-1 protease (Human immunodeficiency virus type 1 group M subtype B, UniProt P04585)
T1 construct: the enzyme HIV-1 protease; purchased BACHEM AMERICAS (King of Prussia, Pa.)
Experiment: Kinetic parameter determination: hydrolysis of chromogenic substrate by HIV-1 PR monitored at 300 nm
Format: biochemical
Settings: substrate hydrolysis by HIV-1 PR, 25° C., pH 4.9 assay buffer
Description: The synthetic chromogenic substrate, H-His-Lys-Ala-Arg-Val-Leu*Nph-Glu-Ala-Nle-Ser-NH2 (SEQ ID NO:3) and the enzyme HIV-1 protease (0.65 milligrams per milliliter (mg/mL), 16 International Units per milligram (IU/mg)) were purchased from BACHEM AMERICAS (King of Prussia, Pa.).
A stock solution containing 1 mg/mL of the chromogenic substrate in HIV PR assay buffer (50 millimolar (mM) sodium acetate, pH 4.9, 200 mM NaCl, 5 mM diothiothreitol (DTT), 10% (v/v) glycerol) was prepared by dissolving 5 mg chromogenic substrate in 5 mL of assay buffer. A substrate solution at a concentration of 101 micromolar (μM) was prepared in HIV-PR assay buffer from the substrate stock in a sample cup of Roche COBAS FARA. The stock mixture of HIV-1 PR as received was then diluted by 20-fold into this mixture. The hydrolysis of substrate by HIV-1 PR was monitored at 300 nm at 25° C. on a ROCHE DIAGNOSTICS COBAS FARA instrument.
A stock solution containing the chromogenic substrate at a concentration of 3 mg/mL was prepared by dissolving 5 mg chromogenic substrate in 1.67 mL of the assay buffer as described in Example 1. A series of substrate solutions were prepared in the HIV-PR assay buffer over the concentration range of 0-2282 μM. The stock solution of HIV-1 PR was then diluted by 20-fold into HIV PR assay buffer. The hydrolysis of substrate by HIV-1 PR was monitored at 300 nm at 25° C. on a ROCHE DIAGNOSTICS COBAS FARA instrument, as described in Example 1.

CCCC[C@H](NC(=O)[C@H](C)NC(=O)[C@H](CCC(=O)O)NC(=O)[C@H](Cc1ccc([N+](=O)[O-])cc1)NC(=O)[C@H](CC(C)C)NC(=O)[C@@H](NC(=O)[C@H](CCCNC(=N)N)NC(=O)[C@H](C)NC(=O)[C@H](CCCCN)NC(=O)[C@@H](N)Cc1c[nH]cn1)C(C)C)C(=O)N[C@@H](CO)C(N)=O [chromogenic substrate, H-His-Lys-Ala-Arg-Val-Leu*Nph-Glu-Ala-Nle-Ser-NH2] (HELM PEPTIDE1{H.K.A.R.V.L.[O=C([C@H](Cc1ccc([N+](=O)[O-])cc1)N[*:1])[*:2]].E.A.[Nle].S.[am]}$$$$V2.0)
apparent Vmax: 156.81 µmol/mg/min | apparent kcat: 58.02 s⁻¹ | Km (substrate 0-2282 μM, read-out: apparent Km): 67 ± 7.55 µM
